Test results published in patent publication US9072729B2, “Method for treating fibrosis and cancer with imidazolium and imidazolinium compounds” (Agency for Science, Technology and Research, priority 2008, dated 2015).

Legend:
[1] = tested on: p53 signaling pathway-associated gene expression in HLE cells; assay: Real-time PCR array of p53 signaling pathway-associated genes; type: cell-based, human; settings: 48 h
Description: FIG. 42. Real-Time PCR array analysis of p53 signaling pathway-associated gene expression. (A) Anti-apoptotic genes. (B) Growth inhibition gene SESN2. (C) Cell cycle check point genes. (D) Cell proliferation genes. (E) DNA repair gene ATM. The relative level of gene expression was normalized with housekeeping gene GAPDH. Values are expressed as mean±standard deviation.
Cells were seeded at a density of 4×10^5 cells per dish in 10 cm dishes. Next day, the cells were exposed to 90 uM of IBN-19, 90 uM of IBN-24, 40 uM of IBN-25 and 0.045% of DMSO (Dimethyl Sulphoxide) as the control. After 48 hrs, total RNAs were extracted from the cells using Nucleospin RNA II kit as per the manufacturer's istructions. RNA quality and yield were evaluated after spectrophotometer measurements.
The human apoptosis PCR array (RT^2 Profiler) was used to analyze mRNA levels of 84 key genes involved in apoptosis, in a 96-well format, according to the manufacturer's instructions (Super Array Bioscience). First-strand cDNA was synthesized with 1 μg of RNA by using a PCR array first strand-synthesis kit (C-03; Super array Bioscience). This kit uses reverse transcriptase (Power Script; Super array Bioscience) and a combination of random primers and oligo dT primers. The total volume of the reaction was 20 μL diluted to 100 μL. PCR reactions were performed using real-time PCR (79s00HT 96-well block with RT^2 Real-Time SYBR Green PCR master mix PA-012; Applied Biosystems Instruments 7500). The total volume of the PCR reaction was 25 μl. An equivalent of […] of RNA was applied to the PCR reaction. The thermocycler parameters were 95° C. for 10 minutes, followed by 40 cycles of 95° C. for 15 seconds and 60° C. for 1 minute. Relative changes in gene expression were calculated using the ΔΔCt (cycle threshold) method. An average of the number of cycles of the five housekeeping genes, GAPDH, Actin-β, β2m, Hprt1, and Rpl13d, was used to normalize the expression between samples. The expression data are presented as fold regulation. GAPDH gene expression levels were utilized as an internal control to normalize the data. Reported fold changes in expression are the ratios of treatment over control values.
To obtain more information on how the IMSs influence other gene expression in the HLE cells, 84 genes related to p53 signal transduction were profiled by using the RT^2 Profiler array (Super Array Bioscience) (FIG. 42A, B, C, D, E). The array includes keys genes relevant to p53, apoptosis, cell cycle, cell growth, proliferation, differentiation, and DNA repair.

HLE cells [2] = assay: Cell cycle analysis (PI flow cytometry); type: cell-based, human; settings: 72 h
Description: FIG. 37. IMSs arrest Hepatocarcinoma cells. Cells were treated with vehicle and IBN 15, IBN 19, IBN 24, IBN 25 and IBN 32 for 72 h, and cell cycle distribution was assessed by flow cytometry. A) Example FACS profiles of propidium iodide-stained control cells, and cells treated with IMSs respectively. B) % of cells in cell cycle phase C) % of cells in subG0 population. Each value is the mean±S.D. of three determinations.
To perform cell cycle distribution analysis, 4×10^5 cells were plated in 10 cm dish. The cells (70% confluence) were serum-starved for 24 h to synchronize them in the G0 phase of the cell cycle. After 24 h incubation, the cells were replaced with fresh 10% DMEM medium and then treated 60 μM of IBN-15, 90 μM of IBN-19, 90 μM of IBN-24, 30 μM of […] and 20 μM of IBN-32) and 0.045% DMSO as control for 72 h. The floating and trypsinized adherent cells were collected and washed with PBS. The cell pellets were resuspended in 1 ml of PBS and fixed by the addition of 70% ice-cold ethanol and stored at −20° C. After incubation for 24 hr, the cells were re-pelleted by centrifugation, the cells were washed once with PBS and resuspended in 0.1 mL of PBS containing 100 μg/ml of RNase and then incubated at 37° C. for 15 min. Finally, the cells were stained with 0.5 ml of PI solution (100 μg/mL in PBS) for 30 min. Cell cycle distribution was detected by a BD FACS array flow cytometer (Becton Dickinson). Cells with sub-G0 DNA were classified as apoptotic cells.

[3] = tested on: caspase 3, caspase 9 and PARP; assay: Western blot of caspase-3, caspase-9 and PARP cleavage in HLE; type: cell-based, human; settings: 72 h
Description: FIG. 38. IMSs, induce cleavage of caspase-3, caspase-9 and PARP. Western blot analysis for the effect of IBN 15, IBM 19, IBN 24, IBM 25, IBN 32 on the cleavage of caspase-3, Caspase-9 and PARP in HLE cells after 72 h exposure to indicated doses of IMSs.
The HLE cells were seeded at a density of 4×10^5 in 10 cm dish. After 24 h incubation, the cells were replaced with fresh 10% DMEM medium and then treated with 60 μM of IBN-15, 90 μM of IBN-19, 90 μM of IBN-24, 30 μM of IBN-25 and 20 μM of IBN 32 and 0.045% DMSO as control for 72 h. Whole cell lysates were prepared on day 3 with lysis buffer [125 mM Tris (pH 7.4), 2% Sodium dodecyl sulfate, 10% glycerol, 6M urea and a protease inhibitor cocktail (Sigma) and 0.02% Bromophenol blue]. The lysates were sonicated for 30 seconds and then heated for 5 mins at boiling temperature. The lysates were centrifuged at 13000 rpm for 10 mins and the protein concentration of each sample was estimated using the BCA protein assay. The lysates was then mixed with 5% 2-mercaptoethanol and stored at −80 C. For Western blotting, samples containing 50 μg of total cell lysate were loaded onto a SDS-PAGE and subjected to electrophoresis. Proteins were transferred to a nitrocellulose membrane and then blocked with 5% non-fat dry milk in Tris buffer saline containing 0.1% Tween 20 for 60 min at 37 C. The membranes were probed with a primary antibody overnight at 4 C in TEST containing 5% Bovine serum albumin. Then the membrane was incubated with horseradish peroxidase (HRP)-conjugated anti-rabbit or anti-mouse secondary antibodies (GE Health care, Chalfont St Giles, UK). Detection was performed with enhanced chemiluminescence (ECL) reagent (Amersham Arlington Heights, Ill.) according to the manufacturer's protocol. Rabbit polyclonal Phospho-p53 (Ser15, 20, 46, 392), anti-caspase-9, anti-caspase-3, anti-PARP antibodies were purchased from Cell Signaling Technology, Inc. (Beverly, Mass., USA). Antibodies against p53 and p21 were purchased from Santa Cruz Biotechnology (Santa Cruz, Calif., USA).

HLE cells [4] = assay: Growth inhibition assay (MTT), HLE; type: cell-based, human; settings: Homo sapiens
Description: The effect of IMSs (IBN-15, IBN-19, IBN-24, IBN-25 and IBN-32) on the proliferative properties of p53 mutant cell line HLE was examined. The cytotoxicity activity and proliferation inhibition of IMSs in tumor cells were measured by MTT. […] The control experiments with DMSO alone (0.05% v/v) had no effect on cell proliferation. […] (Table 4) Microscopic observation on the cell cultures visually confirmed the inhibition on cell proliferation by IMSs. (FIG. 35)

Huh7 cells = assay: HCC xenograft model (Huh7 cells in Balb/c nude mice); type: in vivo, mouse; settings: 3 weeks
Description: (§1) Balb/c Nude mice, 5-6 weeks old, were inoculated with 1×10^7 Huh7 cells in 0.2 ml volume of Matrigel/DMEM mix. Since not every mouse developed a tumor after the inoculation of HCC cells, only those with visible tumors (about 8 weeks after inoculation) were used for subsequent experiment. The tumor-bearing mice were randomly divided to the control and the treatment group. (n=3), respectively. Mice in the treatment group had free access to drinking water containing DBZIM (2 grams/liter) only, while mice in the control group had free access to Water only. The compound treatment lasted for 3 weeks. The tumor size was measured weekly, and the tumor volume was calculated using the formula: 0.52×width^2×length.
as §1, with “group” for “group.”, “compound 9 (IBN-9) at 0.6 g/l or 1.5 g/l” for “DBZIM (2 grams/liter)”, “water” for “Water”

MDAMB231 = assay: Growth inhibition assay (MTT), MDAMB231; type: cell-based, human; settings: MDAMB231, 72 h
Description: (§4) The percentage of growth inhibition was determined by using a MTT assay to measure viable cells. For the MTT assay, 1×10^3 cells per well were cultured in 96-well plates and treated with 0 to 100 μM of various types of IMSs for 72 h. After incubation for specified times at 37° C. in a humidified incubator, culture medium replaced with 10 μL of MTT reagent (5 mg/mL) contains 100 μL medium was added to each well and further incubated for 4 h. The reaction was stopped by adding 100 μL of DMSO. Absorbance was measured at 570 nm on a micro plate reader (SpectroMax 190, Molecular Devices). Data were presented from three separate experiments, and the percentage of IMSs induced cell growth inhibition was determined where DMSO-treated cells (control) were taken as 100%.
(§5) First, the cytotoxic effect of these drugs on these cells was investigated using the MTT assay. Cells were seeded into 96 well plates and treated with increasing concentrations of these synthetic organic molecules for 72 h, and then the cytotoxic effect was measured.

MKN 28 = assay: Growth inhibition assay (MTT), MKN 28; type: cell-based, human; settings: MKN 28, 72 h
Description: as §4, §5

MCF-10A = assay: Growth inhibition assay (MTT), MCF-10A; settings: 72 h
Description: as §4, §5

HLE cells [5] = assay: Annexin V staining and flow cytometry, HLE; type: cell-based, human; settings: 24 hr, TRAIL 100 ng/ml
Description: (§2) FIG. 22. […] HLE or HepG2 cells were incubated with DBZIM of various concentrations for 6 hr, and assayed for caspase 3/7 activity and LDH releasing (expressed as % toxicity). DBZIM induced apoptosis as characterized by annexin V staining using flow cytometer in HLE (E) and HepG2 (F). Scatter plot and histogram gave the representative information on the cell population distribution while bar graphs quantified the percentage of apoptotic cells from the histogram. HLE and HepG2 cells were treated by DBZIM of various concentrations for 24 hr before harvesting for annexin V staining and flow cytometric analysis.
(§3) HLE and HepG2 cells were treated with various concentrations of DBZIM or TRAIL (100 ng/ml) for 24 hr, harvested and labeled with Annexin V-FITC (BioVision, CA, USA). The labeled cells were analysed by flow cytometry FACSCalibur ([…], NJ, USA) and CellQuest software. Cells showing green staining in the plasma membrane were considered as apoptotic cells.

HepG2 cells = assay: Annexin V staining and flow cytometry, HepG2; type: cell-based, human; settings: HepG2, 24 hr; TRAIL 100 ng/ml
Description: as §2, §3

Cc1n(Cc2ccccc2)cc[n+]1Cc1ccccc1C(F)(F)F.[Cl-] [IBN-25, 1-benzyl-3-(2-trifluoromethylbenzyl)-2-methylimidazolium chloride]
anti-apoptotic gene BCl-2 expression [1]: significantly down regulated | cell proliferation genes (Mcl1, Egr1, Foxo3, Jun, Mdm4, Nf1, Prm1D, Sesn1, E2f11, Prkca, Brca1) [1]: significantly down regulated | increase of ATM gene expression vs control ([1]; IBN-19 90 uM, IBN-24 90 uM, IBN-25 40 uM): 9 folds | cells in the S phase (HLE cells [2]; at respective IC-50, control 24%): 14.3% | cells in the G2/M phase (HLE cells [2]; at respective IC-50, control 30%): 19.4% | cells in the G1 phase (HLE cells [2]; at respective IC-50, control 50%): 34.5% | activation and cleavage of caspase 3, caspase 9 and PARP [3]: induced significant activation and cleavage | IC50 (HLE cells [4]; 72 h): 30 µM | IC50 (HLE cells [4]; 120 h): 35 µM

CC(=O)Oc1ccc(Cn2cc[n+](-c3c(C)cc(C)cc3C)c2)cc1.[Cl-] [compound 9, 1-(2,4,6-trimethylphenyl)-3-(4-acetate-benzyl)-imidazolium chloride]
reduction of tumor volume (Huh7 cells; 0.6 g/l in drinking water): 43% | body weight or gross pathology (Huh7 cells; 0.6 g/l or 1.5 g/l in drinking water): No change in body weight or gross pathology | reduction of tumor volume (Huh7 cells; 1.5 g/l in drinking water): 62% | IC50 (MDAMB231): 20 µM | IC50 (MKN 28): 10 µM | IC50 in normal breast epithelial cells (MCF-10A): no IC50

Cc1n(Cc2ccccc2)cc[n+]1Cc1ccccc1.[Br-] [compound C, 1,3,-Dibenzyl-2-methylimidazolium bromide]
IC50 (MDAMB231): 35 µM | IC50 (MKN 28): 35 µM | IC50 in normal breast epithelial cells (MCF-10A): no IC50

B1: TRAIL: TNF-Related Apoptosis Inducing Ligand, used as a positive control for apoptosis (protein, UniProt P50591 1-281, looked up)
Tumor necrosis factor ligand …: MAMMEVQGGPSLGQTCVLIVIFTVLLQSLCVAVTYVYFTNELKQMQDKYSKSGIACFLKEDDSYWDPNDEESMNSPCWQVKWQLRQLVRKMILRTSEETISTVQEKQQNISPLVRERGPQRVAAHITGTRGRSNTLSSPNSKNEKALGRKINSWESSRSGHSFLSNLHLRNGELVIHEKGFYYIYSQTYFRFQEEIKENTKNDKQMVQYIYKYTSYPDPILLMKSARNSCWSKDAEYGLYSIYQGGIFELKENDRIFVSVTNEHLIDMDHEASFFGAFLVG
apoptosis (annexin V staining) (HLE cells [5]): not in HLE cells | apoptosis (annexin V staining) (HepG2 cells): only induced apoptosis in HepG2
